Results from publication PMC6753678, “Fueling Open Innovation for Malaria Transmission-Blocking Drugs: Hundreds of Molecules Targeting Early Parasite Mosquito Stages” (Frontiers in Microbiology, 2019).
Where two headings read alike, the source gives them in different places.

Key:
HepG2 cells [1] = test: HepG2 cytotoxicity assay; details: for IC50: read-out: HepG2 cytotoxicity assay IC50, dose response confirmation
How it was run: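 HepG2 cells, 2,500 per well in MEM with 10% FBS and 1% NEAA, exposed to compounds for 48 h at 37°C, 5% CO2. Viability read by fluorescence; percent inhibition relative to 50 μM doxorubicin and DMSO controls.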

[2] = tested on: P. falciparum late stage (stages IV-V) gametocytes; design: method as in Almela et al 2016; details: ref Almela et al 2016, read-out: Pf GCT ATP IC50, cited from earlier work
[3] = tested on: P. falciparum female gametocytes; design: method as in Miguel-Blanco et al 2017; details: TCAMS screen comparison; ref Miguel-Blanco et al 2017; read-out: Pf FGAA IC50; cited from earlier work
HepG2 cells [4] = details: cited from earlier work
[5] = tested on: P. falciparum female gametocytes; test: P. falciparum female gametogenesis assay (Pf FGAA); details: 1: YES; 0: NO
[6] = tested on: P. falciparum late stage (stages IV-V) gametocytes; test: P. falciparum late stage gametocyte ATP depletion assay (Pf GC-ATP); details: 1: YES; 0: NO
[7] = tested on: 3D7-strain P. falciparum asexual parasites; test: P. falciparum asexual growth inhibition assay (Pf GIA); type: cell-based, Plasmodium falciparum; details: dose response confirmation; read-out: Pf asexual growth inhibition assays IC50
How it was run: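 Read-out was lactate dehydrogenase activity measured by absorbance at 650 nm after freezing and thawing, against 50 μM chloroquine and DMSO controls. Before that, asexual 3D7 cultures (0.25% parasitemia, 2% hematocrit) had 72 h dose-response compound exposure at 37°C in 5% CO2/5% O2/90% N2; three independent replicates averaged.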

[8] = tested on: P. berghei ookinete development; details: for % inhibition, Replicate A / % inhibition, Replicate B: primary screen at 1 μM
[9] = HepG2 values of the three screens unified
[10] = read-out: Pb ODA IC50, this manuscript
[11] = read-out: Pb Ookinete development assay IC50, dose response confirmation

Structure (SMILES)	Unified cytotox (HepG2 cells [1]; HepG2 cytotoxicity unified across the three screens) [µM]	IC50 ([2]; TCAMS screen comparison) [nM]	IC50 [3] [nM]	HepG2 cytoxicity (HepG2 cells [4]; value reported with the Pf FGAA screen, ref Miguel-Blanco et al 2017) [µM]	HepG2 cytoxicity (HepG2 cells [4]; value reported with the Pf GCT ATP screen, ref Almela et al 2016) [µM]	Is compound selective in assay? Pf FGAA active? [5]	Is compound selective in assay? Pf GC-ATP active? [6]	IC50 [7] [nM]	Unified cytotox (HepG2 cells [1]; [9]) [µM]	IC50 (HepG2 cells [1]) [nM]	Is compound selective in assay? Pb ODA active? ([8]; 1: YES, 0: NO)	% inhibition, Replicate A [8] [%]	% inhibition, Replicate B [8] [%]	IC50 [8, 10] [nM]	IC50 [8, 11] [nM]	IC50 [2] [nM]	HepG2 cytoxicity (Pf GCT ATP screen) (HepG2 cells [4]; ref Almela et al 2016) [µM]	HepG2 cytoxicity (Pb ODA, this manuscript) (HepG2 cells [1]) [µM]	Is compound selective in assay? Pb ODA active? [8]
COc1ccc(OC)c(-c2cccc(-c3cccc(NC(=O)c4ccc([N+](=O)[O-])o4)c3)n2)c1 [TCMDC-124799]	4.89	780	960	3.63	6.15	0 (0: NO)	0 (0: NO)	–	–	–	–	–	–	–	–	–	–	–	–
Cc1[nH]c2ccccc2c1C(=O)C(C)Sc1n[nH]c(-c2ccccc2Br)n1 (stereo not drawn) [TCMDC-125114]	–	–	–	–	–	–	1 (1: YES)	57	74.66	100000	1 (1: YES)	114.44	73.49	170	174	670	49.31	–	–
COc1cccc(NC(=O)[C@H](C(C)C)n2c(=O)[nH]c3ccccc3c2=O)c1 [TCMDC-125133]	–	–	–	–	–	–	1 (1: YES)	170	100.00	100000	1 (1: YES)	62.00	73.38	–	1530	540	>50	–	–
CCOc1ccc(-c2nonc2NC(=O)c2cccc(Cl)c2)cc1OCC [TCMDC-125200]	–	–	–	–	–	–	1 (1: YES)	156	19.50	19500	0 (0: NO)	62.08	54.18	6230	6230	840	>25	19.50	–
COc1ccc(C[C@H]2NC[C@H](O)[C@H]2OC(C)=O)cc1 [TCMDC-125504]	–	–	–	–	–	–	0 (0: NO)	54	1.24	2290	–	102.72	96.40	210	215	170	0.19	2.29	0 (key: 1: YES; 0: NO)
COCCn1c(-c2cccc(Cl)c2)nn(-c2ccc([N+](=O)[O-])cc2C#N)c1=S [TCMDC-134719]	–	–	–	–	–	–	1 (1: YES)	403	100.00	100000	1 (1: YES)	64.09	78.69	1840	1840	2780	>25	–	–
CCOCn1c(-c2ccccc2)cc2c3c(N)nc(N)nc3ccc21 [TCMDC-137979]	–	–	–	–	–	–	0 (0: NO)	180	5.22	4790	0 (0: NO)	30.79	81.58	7500	7500	1300	5.65	4.79	–
C=CC(C)C1OC(=O)c2cc(OC)cc(OC)c21 (stereo not drawn) [TCMDC-138676]	–	–	–	–	–	–	0 (0: NO)	259	1.01	1220	0 (0: NO)	44.05	73.82	490	489	400	0.8	1.22	–
Cc1cc(F)ccc1-c1nc(NCC(O)CNCCc2ccccc2)nc2c1ccc(=O)n2-c1c(F)cccc1F.O=C(O)C(F)(F)F (stereo not drawn) [TCMDC-141784]	–	–	–	–	–	–	1 (1: YES)	451	11.63	14800	0 (0: NO)	54.07	33.72	3850	3850	230	8.47	14.79	–
O=c1c(Br)ccccc1Br [TCMDC-142246]	–	–	–	–	–	–	1 (1: YES)	2070	13.70	14800	1 (1: YES)	52.58	94.32	930	933	210	12.6	14.79	–
